The record followed here is patent US4292317A, “1,4-Dihydro-quinoline-3-carboxylic acid derivatives, process for their preparation and compositions containing them” (Laboratorie Roger Bellon, priority 1977, dated 1981).

In brackets after ≈: the same amount, converted by molar mass. Some results are limits rather than exact numbers.

Usually ED50 stands for the dose at which the effect has come halfway, by size or by number of responders. The low end stands for greater potency, the high end for weaker potency.

In one test the test system is Escherichia coli P 5101. Kind of test: Systemic infection in mice. The format is in vivo. Conditions: P5101, po, 168 h. As for the experimental part:
(§1) The activity of the compounds according to the invention against systemic infections in mice, caused by Staphylococcus 50,774, Streptococcus pyogenes A 65, Pseudomonas aeruginosa No. 12 and Escherichia coli P 5101, has been studied.
(§2) The infections were set up by intraperitoneal injection of a suspension of the bacterial culture corresponding to the germ studied. The products were administered orally at the time of injection, and 6 hours later. […] Aureus and for 7 days for the other germs.
(§3) Oxolinic acid was used as the reference substance.

Test [1] deals with Pseudomonas aeruginosa No. 12. Briefly: Systemic infection in mice. As to conditions: NO.12, po, 168 h. The format is in vivo. As for the experimental part: as §1, §2, §3
The subject of another test is Staph. aureus 50,774. Kind of test: Systemic infection in mice. The format is in vivo. As to conditions: Staphylococcus aureus, po, 336 h. As for the experimental part:
as §1, §2, §3

In another test the test system is Strept. pyogenes A. 65. Kind of test: Systemic infection in mice. The format is in vivo. As to conditions: Streptococcus pyogenes, A.65, po, 168 h. The method, then: as §1, §2, §3
For another test, the system named is Arizona 6.211. Kind of test: M.I.C. in vitro, nutrient agar dilution. The format is cell-based. As to conditions: 18 h; Table 2; Arizona 6.211 (Gram negative); read-out: M.I.C. As for the experimental part: (§4) After sterilisation at 120° C., the pH was 6.8.
(§5) The minimum inhibitory concentrations (M.I.C.) were determined by dilution of the test compounds in this mixture, the concentration ranging from 0.05 to 100 μg/cm^3 in a geometric progression with a factor of 2.
(§6) The inoculation of the dishes was carried out by means of a multiple inoculator with 10^-3 dilutions of 18 hour old broth cultures.
(§7) The dishes were placed in an oven at 37° C. and the readings were taken afer an incubation time of 18 hours. The M.I.C. was taken as the lowest concentration which inhibited a culture.
In general terms: In agar dilution, organisms are placed on agar that contains the substance at set levels.

A further test relates to B. subtilis. Briefly: M.I.C. in vitro, nutrient agar dilution. The format is cell-based. Conditions: Bacillus subtilis, 18 h; Table 2; B. subtilis (Gram positive); read-out: M.I.C. As for the experimental part: as §4, §5, §6, §7
Another test has as its system Bord. bronchis. 4.617. Briefly: M.I.C. in vitro, nutrient agar dilution. The format is cell-based. Conditions: 18 h; Table 2; Bord. bronchis. 4.617 (Gram negative); read-out: M.I.C. The method, then: as §4, §5, §6, §7
The test system of a further test is Esch. coli 111 B4. Briefly: M.I.C. in vitro, nutrient agar dilution. The format is cell-based. Conditions: Escherichia coli, 18 h; Table 2; Esch. coli 111 B4 (Gram negative). As for the experimental part:
as §4, §5, §6, §7

In the next test the test system is Esch. coli 54.127 O.M.S. Kind of test: M.I.C. in vitro, nutrient agar dilution. The format is cell-based. As to conditions: Escherichia coli, 18 h; Table 2; Esch. coli 54.127 O.M.S. (Gram negative); read-out: M.I.C. As for the experimental part: as §4, §5, §6, §7
In a further test the test system is Esch. coli 95 I.S.M. Briefly: M.I.C. in vitro, nutrient agar dilution. The format is cell-based. As to conditions: Escherichia coli, 18 h; Table 2; Esch. coli 95 I.S.M. (Gram negative); read-out: M.I.C. As for the experimental part: as §4, §5, §6, §7
A further test deals with Klebs. pneum. 10.031. Briefly: M.I.C. in vitro, nutrient agar dilution. As to conditions: 18 h; Table 2; Klebs. pneum. 10.031 (Gram negative); read-out: M.I.C. The format is cell-based. The method, then:
as §4, §5, §6, §7

Another test relates to Pr. mirabilis Nig. Briefly: M.I.C. in vitro, nutrient agar dilution. As to conditions: Proteus mirabilis, 18 h; Table 2; Pr. mirabilis Nig (Gram negative); read-out: M.I.C. The format is cell-based. The method, then: as §4, §5, §6, §7
In the next test the test system is Pr. morganii A.236. Kind of test: M.I.C. in vitro, nutrient agar dilution. The format is cell-based. Conditions: Morganella morganii, 18 h; Table 2; Pr. morganii A.236 (Gram negative); read-out: M.I.C. As for the experimental part: as §4, §5, §6, §7
Another test deals with Pr. vulgaris 12-53. Briefly: M.I.C. in vitro, nutrient agar dilution. Conditions: Proteus vulgaris, 1253, 18 h; Table 2; Pr. vulgaris 12-53 (Gram negative); read-out: M.I.C. The format is cell-based. As for the experimental part:
as §4, §5, §6, §7

The test system of the next test is Providentia 0223. Briefly: M.I.C. in vitro, nutrient agar dilution. The format is cell-based. Conditions: 18 h; Table 2; Providentia 0223 (Gram negative); read-out: M.I.C. The method, then:
as §4, §5, §6, §7

The test system of a further test is Ps. aeruginosa 72.345. Kind of test: M.I.C. in vitro, nutrient agar dilution. As to conditions: Pseudomonas aeruginosa, 18 h; Table 2; Ps. aeruginosa 72.345 (Gram negative); read-out: M.I.C. The format is cell-based. The method, then:
as §4, §5, §6, §7

The next test relates to Ps. aeruginosa A.22. Briefly: M.I.C. in vitro, nutrient agar dilution. The format is cell-based. Conditions: Pseudomonas aeruginosa, 18 h; Table 2; Ps. aeruginosa A.22 (Gram negative); read-out: M.I.C. The method, then: as §4, §5, §6, §7
Another test deals with S. enteritidis Danysz. Kind of test: M.I.C. in vitro, nutrient agar dilution. The format is cell-based. As to conditions: Salmonella enterica, 18 h; Table 2; S. enteritidis Danysz (Gram negative); read-out: M.I.C. As for the experimental part: as §4, §5, §6, §7
The test system of another test is S. oranienburg 1066. Kind of test: M.I.C. in vitro, nutrient agar dilution. The format is cell-based. As to conditions: Salmonella enterica, 18 h; Table 2; S. oranienburg 1066 (Gram negative); read-out: M.I.C. As for the experimental part:
as §4, §5, §6, §7

The subject of another test is Serratia. Briefly: M.I.C. in vitro, nutrient agar dilution. The format is cell-based. As to conditions: 18 h, Table 2, Berratia (Gram negative), read-out: M.I.C. As for the experimental part: as §4, §5, §6, §7
The subject of a further test is Sh. sonnei I.P.S. Kind of test: M.I.C. in vitro, nutrient agar dilution. Conditions: Shigella sonnei, 18 h; Table 2; Sh. sonnei I.P.S. (Gram negative); read-out: M.I.C. The format is cell-based. As for the experimental part: as §4, §5, §6, §7
The subject of the next test is Staph. 209 P. Kind of test: M.I.C. in vitro, nutrient agar dilution. The format is cell-based. Conditions: 18 h; Table 2; Staph. 209 P (Gram positive); read-out: M.I.C. The method, then:
as §4, §5, §6, §7

A further test concerns Staph. 9.144. Kind of test: M.I.C. in vitro, nutrient agar dilution. Conditions: 18 h; Table 2; Staph. 9.144 (Gram positive); read-out: M.I.C. The format is cell-based. As for the experimental part: as §4, §5, §6, §7
Another test concerns Strepto A 561. Kind of test: M.I.C. in vitro, nutrient agar dilution. The format is cell-based. Conditions: 18 h; Table 2; Strepto A 561 (Gram positive). The method, then:
as §4, §5, §6, §7

Another test relates to Strepto D.M. 19. Briefly: M.I.C. in vitro, nutrient agar dilution. The format is cell-based. Conditions: 18 h; Table 2; Strepto D.M. 19 (Gram positive); read-out: M.I.C. The method, then:
as §4, §5, §6, §7

The subject of another test is Salm. typhi 0901. Briefly: microbe, parasite or virus in culture. As to conditions: Salmonella enterica, 18 h; Table 2; Salm. typhi 0901 (Gram negative). The format is cell-based. The method, then:
as §4, §5, §6, §7

With `CCn1cc(C(=O)O)c(=O)c2cc(F)c(N3CCN(C)CC3)cc21` [Example 20, 1-Ethyl-6-fluoro-7-(4-methylpiperazinyl)-4-oxo-1,4-dihydro-quinoline-3-carboxylic acid], the ED50 in the test with Escherichia coli P 5101 stood at 1.8 mg/kg; in test [1] it was 7.8 mg/kg; in the test with Staph. aureus 50,774 it was 2.9 mg/kg; in the test on Strept. pyogenes A. 65, 65 mg/kg. The ED90 was determined as 2.8 mg/kg in the test on Escherichia coli P 5101, 11.5 mg/kg in test [1], 9.3 mg/kg in the test on Staph. aureus 50,774 and 103 mg/kg with Strept. pyogenes A. 65.

Regarding `CCn1cc(C(=O)O)c(=O)c2ccc(N3CCN(C)CC3)cc21` [Example T1, 1-ethyl-7-(4-methylpiperazinyl)-4-oxo-1,4-dihydro-quinoline-3-carboxylic acid, reference compound], the MIC stood at 1.6 µg/mL (≈ 5.07 µM) in the test on Arizona 6.211; 1.6 µg/mL (≈ 5.07 µM) in the test with B. subtilis; 25 µg/mL (≈ 79.3 µM) in the test with Bord. bronchis. 4.617; 1.6 µg/mL (≈ 5.07 µM) with Esch. coli 111 B4; 1.6 µg/mL (≈ 5.07 µM) with Esch. coli 54.127 O.M.S.; 0.8 µg/mL (≈ 2.54 µM) in the test with Esch. coli 95 I.S.M.. Also, the MIC was 0.8 µg/mL (≈ 2.54 µM) in the test with Klebs. pneum. 10.031; 3.1 µg/mL (≈ 9.83 µM) in the test on Pr. mirabilis Nig; 0.8 µg/mL (≈ 2.54 µM) in the test on Pr. morganii A.236; 3.1 µg/mL (≈ 9.83 µM) in the test with Pr. vulgaris 12-53; 100 µg/mL (≈ 317 µM) with Providentia 0223; 12.5 µg/mL (≈ 39.6 µM) with Ps. aeruginosa 72.345. The MIC in the test with Ps. aeruginosa A.22 was 12.5 µg/mL (≈ 39.6 µM); in the test with S. enteritidis Danysz it was 3.1 µg/mL (≈ 9.83 µM); in the test on S. oranienburg 1066, > 100 µg/mL; with Serratia it was 12.5 µg/mL (≈ 39.6 µM); with Sh. sonnei I.P.S., 1.6 µg/mL (≈ 5.07 µM); in the test on Staph. 209 P it was 3.1 µg/mL (≈ 9.83 µM). Moreover, the MIC with Staph. 9.144 was 6.2 µg/mL (≈ 19.7 µM); with Strepto A 561, 50 µg/mL (≈ 159 µM); in the test on Strepto D.M. 19, 50 µg/mL (≈ 159 µM); against Salm. typhi 0901, 3.1 µg/mL (≈ 9.83 µM).

Take `CCn1cc(C(=O)O)c(=O)c2ccc(N3CCN(CCO)CC3)cc21` [Example T4, reference compound]: the MIC in the test with Arizona 6.211 stood at 12.5 µg/mL (≈ 36.2 µM); with B. subtilis, 3.1 µg/mL (≈ 8.98 µM); with Bord. bronchis. 4.617, 100 µg/mL (≈ 290 µM); against Esch. coli 111 B4, 6.2 µg/mL (≈ 18 µM); in the test with Esch. coli 54.127 O.M.S. it was 6.2 µg/mL (≈ 18 µM); with Esch. coli 95 I.S.M., 6.2 µg/mL (≈ 18 µM). Further, the MIC was 3.1 µg/mL (≈ 8.98 µM) in the test with Klebs. pneum. 10.031; 50 µg/mL (≈ 145 µM) with Pr. mirabilis Nig; 3.1 µg/mL (≈ 8.98 µM) in the test on Pr. morganii A.236; 25 µg/mL (≈ 72.4 µM) with Pr. vulgaris 12-53; > 100 µg/mL in the test with Providentia 0223; 100 µg/mL (≈ 290 µM) in the test with Ps. aeruginosa 72.345. The MIC in the test on Ps. aeruginosa A.22 is 100 µg/mL (≈ 290 µM); in the test with S. enteritidis Danysz it was 12.5 µg/mL (≈ 36.2 µM); in the test on S. oranienburg 1066, > 100 µg/mL; with Serratia, > 100 µg/mL; in the test on Sh. sonnei I.P.S. it was 6.2 µg/mL (≈ 18 µM); with Staph. 209 P, 6.2 µg/mL (≈ 18 µM). Moreover, the MIC in the test with Staph. 9.144 was 3.1 µg/mL (≈ 8.98 µM); against Strepto A 561, > 100 µg/mL; with Strepto D.M. 19 it was 100 µg/mL (≈ 290 µM); with Salm. typhi 0901, 25 µg/mL (≈ 72.4 µM).
